# In patent publication US11179367B2, “Pharmaceutical compositions for treating cystic fibrosis” (Vertex Pharmaceuticals Incorporated, priority 2018, dated 2021):
# What was measured:
# [1] = target: T1, F508del CFTR in NIH3T3 cells (Homo sapiens, UniProt P13569, DEL508-508); experiment: Membrane potential optical assay (correction assay) for F508del-CFTR modulators; type: cell-based; settings: NIH3T3 cells expressing F508del
# T1 construct: expressed in transfected cells
# Excerpt: Membrane Potential Optical Methods for Assaying Properties of F508del-CFTR Modulators
# An optical assay was employed to measure changes in membrane potential to determine the CFTR modulator properties of compounds. The assay utilized fluorescent voltage sensing dyes to measure changes in membrane potential using a fluorescent plate reader (e.g., FLIPR III, Molecular Devices, Inc.) as a readout for increase in functional F508del in NIH 3T3 cells. The driving force for the response was the creation of a chloride ion gradient in conjunction with channel activation and concurrent with compound treatment by a single liquid addition step after the cells had previously been loaded with a voltage sensing dye.
# NIH3T3 mouse fibroblasts stably expressing F508del were used for optical measurements of membrane potential. The cells were maintained at 37° C. in 5% CO2 and 90% humidity in Dulbecco's modified Eagle's medium supplemented with 2 mM glutamine, 10% fetal bovine serum, 1×NEAA, β-ME, 1×pen/strep, and 25 mM HEPES in 175 cm^2 culture flasks. […] The cells were then activated and treated with Compound I. After 18-24 hours, fluorescence from the voltage sensing dye in the cells was measured to assess changes in the membrane potential as a read out for increase in functional F508del CFTR in the NIH3T3 cells.
# [2] = Rat pharmacokinetics, single IV and oral dose; type: in vivo; settings: male Sprague Dawley rats
# Protocol: Compound 1 was also administered to male Sprague Dawley rats at single nominal oral dose (PO) of 3 mg/kg as a solution in 5% NMP, 30% PEG400, 10% TPGS, 5% PVP-K30 at 5 mL/kg dose volume.
# The study design, sample tracking, data run design and individual plasma sample concentrations were stored using Watson LIMS software, Version 7.4.2 (Thermo Scientific Inc, Waltham, Mass.). Plasma concentration-time profiles of Compound 1 in Sprague Dawley rats at scheduled (nominal) sampling times were analyzed by noncompartmental pharmacokinetic methods using PK function within Watson LIMS software, Version 7.4.2 (Thermo Scientific Inc, Waltham, Mass.). Key pharmacokinetic parameters such as “area under the curve” (AUC), from the time of drug administration, time zero, extrapolated to infinity, clearance (CL), and Percent of oral bioavailability (% F) were determined. The AUC values were calculated using the linear trapezoidal rule.
# In Table 21 below, Compound I is shown to have advantageous rat oral exposure (AUC) and oral bioavailability.
# [3] = target: T2, F508del-CFTR in human bronchial epithelial (HBE) cells (Homo sapiens, UniProt P13569, DEL508-508); experiment: Ussing chamber assay, chloride current in airway epithelial (HBE) cells expressing F508del; type: cell-based
# T2 construct: endogenous in cells; host or cells: primary CF human bronchial epithelial (HBE) cells
# T2 sequence (P13569 with tags, fused parts or gaps DEL508-508): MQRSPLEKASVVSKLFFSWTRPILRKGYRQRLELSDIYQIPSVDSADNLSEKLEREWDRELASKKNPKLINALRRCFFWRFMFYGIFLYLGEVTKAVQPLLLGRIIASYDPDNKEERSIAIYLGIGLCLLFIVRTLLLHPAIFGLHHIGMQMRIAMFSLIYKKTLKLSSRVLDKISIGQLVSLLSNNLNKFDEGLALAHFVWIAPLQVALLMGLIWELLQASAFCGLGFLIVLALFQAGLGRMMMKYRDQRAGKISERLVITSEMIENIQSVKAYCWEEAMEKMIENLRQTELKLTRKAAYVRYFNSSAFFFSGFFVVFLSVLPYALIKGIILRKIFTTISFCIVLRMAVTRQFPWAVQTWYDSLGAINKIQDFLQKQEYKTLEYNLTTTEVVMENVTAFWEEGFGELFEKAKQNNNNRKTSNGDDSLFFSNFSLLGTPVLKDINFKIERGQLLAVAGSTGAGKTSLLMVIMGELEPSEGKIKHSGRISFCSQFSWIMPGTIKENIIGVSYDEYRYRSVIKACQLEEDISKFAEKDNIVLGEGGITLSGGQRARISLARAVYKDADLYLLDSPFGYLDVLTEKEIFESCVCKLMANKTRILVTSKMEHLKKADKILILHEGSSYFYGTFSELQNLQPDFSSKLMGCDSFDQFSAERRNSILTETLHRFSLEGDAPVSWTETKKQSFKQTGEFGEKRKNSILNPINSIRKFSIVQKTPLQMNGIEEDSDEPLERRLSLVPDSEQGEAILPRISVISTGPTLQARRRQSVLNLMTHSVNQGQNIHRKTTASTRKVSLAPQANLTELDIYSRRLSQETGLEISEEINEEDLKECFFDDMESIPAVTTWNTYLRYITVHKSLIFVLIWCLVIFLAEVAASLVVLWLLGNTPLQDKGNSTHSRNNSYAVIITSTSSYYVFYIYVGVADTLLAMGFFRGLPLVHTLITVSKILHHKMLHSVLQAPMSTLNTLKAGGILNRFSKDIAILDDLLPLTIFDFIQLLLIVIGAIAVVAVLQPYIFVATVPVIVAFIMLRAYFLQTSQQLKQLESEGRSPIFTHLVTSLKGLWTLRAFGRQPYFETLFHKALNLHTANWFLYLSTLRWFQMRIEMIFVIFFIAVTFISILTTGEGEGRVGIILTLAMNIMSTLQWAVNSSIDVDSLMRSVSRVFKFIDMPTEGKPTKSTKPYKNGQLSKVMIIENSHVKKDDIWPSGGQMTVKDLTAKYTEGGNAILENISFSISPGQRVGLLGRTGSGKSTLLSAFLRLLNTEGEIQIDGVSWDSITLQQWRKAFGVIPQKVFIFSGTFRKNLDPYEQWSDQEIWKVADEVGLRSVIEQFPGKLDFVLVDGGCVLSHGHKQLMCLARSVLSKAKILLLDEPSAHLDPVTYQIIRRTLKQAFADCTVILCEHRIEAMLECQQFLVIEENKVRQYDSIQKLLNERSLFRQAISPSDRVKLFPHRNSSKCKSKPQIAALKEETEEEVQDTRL
# Protocol: Ussing chamber experiments were performed on polarized airway epithelial cells expressing F508del to further characterize the F508del modulators identified in the optical assay above. Non-CF and CF airway epithelia were isolated from bronchial tissue, cultured using methods well known in the art, and plated onto Costar® Snapwell™ filters that were precoated with NIH3T3-conditioned media. After four days the apical media was removed and the cells were grown at an air liquid interface for >14 days prior to use. […] CF-HBE cells were isolated from patients homozygous for F508del (F508del/F508del-HBE) or heterozygous for F508del with a different disease causing mutation on the other allele.
# HBE cells grown on Costar® Snapwell™ cell culture inserts were mounted in an Ussing chamber (Physiologic Instruments, Inc., San Diego, Calif.), and the transepithelial resistance and short-circuit current in the presence of a basolateral to apical Cl^− gradient (ISC) were measured using a voltage-clamp system (Department of Bioengineering, University of Iowa, IA). Briefly, HBE cells were examined under voltage-clamp recording conditions (Vhold=0 mV) at 37° C. […]
# A basolateral to apical membrane Cl^− concentration gradient was set up as follows. […] Chloride current was measured to assess the increase in functional CFTR in the cell membrane.
# [4] = target: F508del-CFTR protein (Homo sapiens, UniProt P13569, DEL508-508); experiment: CFTR processing and trafficking to the cell surface (Example 15); type: cell-based
# Chain of F508del-CFTR protein (P13569 with tags, fused parts or gaps DEL508-508): as above
# [5] = target: CFTR (Homo sapiens, UniProt P13569); settings: disclosed in PCT Application No. PCT/US2017/065425; read-out: EC50 as CFTR modulator; cited from earlier work
# [6] = Solid form assessment of Compound I (thermodynamic stability); type: physicochemical; settings: among solid forms of Compound I
# Excerpt: In some embodiments, Compound I is Form A. In some embodiments, crystalline Form A is characterized by an X-ray powder diffractogram having a signal at least one two-theta value chosen from 6.6±0.2, 7.6±0.2, 9.6±0.2, 12.4±0.2, 13.1±0.2, 15.2±0.2, 16.4±0.2, 18.2±0.2, and 18.6±0.2. In some embodiments, crystalline Form A is characterized by an X-ray powder diffractogram having a signal at at least three two-theta values chosen from 6.6±0.2, 7.6±0.2, 9.6±0.2, 12.4±0.2, 13.1±0.2, 15.2±0.2, 16.4±0.2, 18.2±0.2, and 18.6±0.2. In some embodiments, crystalline Form A is characterized by an X-ray powder diffractograph having a signal at at least three two-theta values chosen from 6.6±0.2, 9.6±0.2, 13.1±0.2, 15.2±0.2, 18.2±0.2, and 18.6±0.2. In some embodiments, crystalline Form A is characterized by an X-ray powder diffractograph having a signal at three two-theta values of 6.6±0.2, 13.1±0.2, 18.2±0.2. In some embodiments, crystalline Form A is characterized by an X-ray powder diffractograph having a signal at six two-theta values of 6.6±0.2, 9.6±0.2, 13.1±0.2, 15.2±0.2, 18.2±0.2, and 18.6±0.2. In some embodiments, Crystalline Form A is characterized by an X-ray powder diffractogram substantially similar to that in FIG. 4A. In some embodiments, Crystalline Form A is characterized by an X-ray powder diffractogram substantially similar to that in FIG. 4B.
# [7] = Bioavailability of crystalline Form A of Compound I; type: in vivo
# T1 sequence (P13569 with tags, fused parts or gaps DEL508-508): as above
EC50 ([1]; 18-24 hours treatment),"Emax ([1]; relative to Compound II, read-out: % Efficacy relative to Compound II)",rat oral exposure (AUC) ([2]; PO 3 mg/kg),oral bioavailability ([2]; PO 3 mg/kg vs IV 3.0 mg/kg),"Rat PO AUC/dose ([2]; single nominal oral dose 3 mg/kg, dose-normalised)","bioavailability ([2]; rat, plasma, oral bioavailability, PO 3 mg/kg vs IV 3.0 mg/kg, read-out: Rat % F)","clearance ([2]; rat, plasma, single nominal IV dose 3.0 mg/kg, read-out: Rat iv CL)","AUC ([2]; rat, plasma, single nominal oral dose 3 mg/kg, AUC extrapolated to infinity)",EC50 [3],HBE Max Eff (%) ([3]; % Efficacy),"CFTR corrector activity (processing and trafficking of F508del-CFTR, enhanced chloride transport) [4]",thermodynamic stability of solid form [6],bioavailability [7],SMILES,EC50 [5]
< 3 µM,≥ 100%,advantageous,advantageous,9.4 ± 0.7 µg·h/mL/mg/kg,84%,1.6 ± 0.4 mL/min/kg,23500 ± 1700 ng·h/mL,< 2 µM,+++ (“+++” means >100%),"potent, efficacious, and selective",–,–,"Cc1nn(C)cc1S(=O)(=O)NC(=O)c1ccc(-n2ccc(OCC(C)(C)C(F)(F)F)n2)nc1N1C[C@@H](C)CC1(C)C [Compound I, N-(1,3-dimethylpyrazol-4-yl)sulfonyl-6-[3-(3,3,3-trifluoro-2,2-dimethyl-propoxy)pyrazol-1-yl]-2-[(4 S)-2,2,4-trimethylpyrrolidin-1-yl]pyridine-3-carboxamide]",0.07 µM
–,–,–,–,–,–,–,–,–,–,–,most thermodynamically stable form,good,"Cc1nn(C)cc1S(=O)(=O)NC(=O)c1ccc(-n2ccc(OCC(C)(C)C(F)(F)F)n2)nc1N1C[C@@H](C)CC1(C)C [Crystalline Form A, N-(1,3-dimethylpyrazol-4-yl)sulfonyl-6-[3-(3,3,3-trifluoro-2,2-dimethyl-propoxy)pyrazol-1-yl]-2-[(4 S)-2,2,4-trimethylpyrrolidin-1-yl]pyridine-3-carboxamide]",–
